Assay: gradient 5% acetonitrile 3 min, to 50% in 2 min, to 85% in 15 min, held 3 min, 100 µL/min
Settings: column: Zorbax Extend-C18 2.1 x 50 mm; eluents: water / acetonitrile, 0.1% formic acid
Procedure, shortened: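 Each retention time is based on an adduct peak selected computationally and verified by manual inspection. Measurements used HPLC–quadrupole time-of-flight mass spectrometry in positive and negative ionization mode on mixtures of ~100 pure standards. Chromatography ran on a Zorbax Extend-C18 column (2.1 × 50 mm, 1.8 μm) at 100 μL/min with water and acetonitrile, each containing 0.1% formic acid, and dead and dwell volumes of 40 μL and 900 μL.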

RP-LC retention time | Structure (SMILES)
595 s | CCc1cc(=O)n(CC(=O)Nc2ccc(OC)cc2)c(N)n1
803 s | O=C(NCc1cccs1)C1CCN(S(=O)(=O)c2cc(C(=O)N3CCOCC3)cs2)CC1
1230 s | Cc1cccc(OCc2nc(C)c(C(=O)Nc3nc(-c4ccccc4)cs3)s2)c1
791 s | CC(C)CNC(=O)CC1Sc2ncccc2N(CC(C)C)C1=O (stereo unspecified)
625 s | Cc1ccc(S(=O)(=O)Nc2ccc(-c3cn4cccc(C)c4n3)cc2)cc1C
914 s | CCCN1C(=O)CCc2cc(NS(=O)(=O)c3ccc(C(F)(F)F)cc3)ccc21
894 s | CCn1nnc2c(N3CCN(S(=O)(=O)c4cccc(C(F)(F)F)c4)CC3)ncnc21
557 s | O=C(NCCN1CCOCC1)c1ccc(-c2ccc(N3CCCCC3)nc2)cc1
927 s | Cc1noc(-c2cc(=O)n(CC(=O)Nc3cccc(Cl)c3)c3ccccc23)n1
864 s | O=C(c1cn(-c2ccc(-c3nc(C4CC4)no3)cn2)cn1)N1CCCCC1
987 s | CCn1cc(-c2nc(C(=O)Nc3ccc(C)c(F)c3)cs2)c2cccnc21
716 s | O=C(Cc1cccc(F)c1)NC1CCN(c2cc(-c3ccc(F)cc3)[nH]n2)C1 (stereo unspecified)
727 s | CC(=O)N1CCC(C(=O)N2CCN(S(=O)(=O)c3ccc4c(c3)sc(=O)n4C(C)C)CC2)CC1
644 s | CC(C)n1nnc2cc(S(=O)(=O)N3CCCC(C(=O)N4CCN(c5ccccn5)CC4)C3)ccc21 (stereo unspecified)
642 s | Cc1noc(C2CN(C(=O)c3ccc(C#N)cc3)CC23CCOCC3)n1 (stereo unspecified)
782 s | CN(C)S(=O)(=O)N1CCCC(c2nc(-c3ccccc3)no2)CCNC(=O)CC1 (stereo unspecified)
551 s | Cc1cccc2nnc(N3CCN(C(=O)c4ccncc4)CC3)n12
662 s | CCn1nccc1C(=O)NCc1cccnc1OC

RP-LC retention time | Structure (SMILES)
726 s | O=C(NCc1cccc(Br)c1)C1CCN(c2cnc3nccnc3c2)CC1
1060 s | Cc1cc2nn(CC(=O)Nc3cccc(Cl)c3)c(=O)n2c(Nc2ccccc2)n1
588 s | O=C(c1ccc2c(c1)OCO2)N1CCN(c2ncnc3c2CCC3)CC1
666 s | O=C(CN1CCSc2ccccc21)NCCCN1CCN(Cc2ccccc2)CC1
889 s | COc1cc(OC)cc(C(=O)Nc2ccc(N3CCN(C4CCCCC4)C3=O)nc2)c1
1090 s | CCCN1C(=O)COc2cc(-c3noc(C(=O)NCCCc4ccccc4)n3)ccc21
949 s | C=CCNc1nc(-c2cccc([N+](=O)[O-])c2)cs1
1070 s | CCOc1ccccc1-c1noc(-c2nnn(Cc3nc(-c4ccccc4OC)oc3C)c2C)n1
676 s | COCCCNC(=O)C1c2cc(OC)c(OC)cc2C(=O)N(C)C1c1cccs1 (stereo unspecified)
719 s | CC1CCCN(CC2CCN(S(=O)(=O)c3ccc4c(c3)CCC4)CC2)C1 (stereo unspecified)
701 s | O=C(COc1ccccc1F)Nc1nnc(-c2ccsc2)o1
630 s | CS(=O)(=O)N1CC(c2nc(-c3cccnc3)no2)C2(CCOCC2)C1 (stereo unspecified)
668 s | COc1ccc(-c2c(NC(=O)c3cccs3)n(C)c3ccccc3c2=O)cc1
553 s | CNC(=O)[C@@H]1CN(C(=O)CCc2cc(OC)no2)C[C@H]1c1n[nH]c(C)n1
781 s | O=S(=O)(c1ccc2c(c1)CCCC2)N1CCCn2nc(-c3cccnc3)cc2C1
680 s | Cn1cnc(S(=O)(=O)N2c3ccccc3CC2c2nnc(C3CCOCC3)o2)c1 (stereo unspecified)
740 s | Cc1ccc(NC(=O)Cn2c(C(C)C)nc3c(c2=O)CCN(Cc2ccccc2)C3)cc1F

Structure (SMILES) | RP-LC retention time
O=C(Cc1ccc(Cl)cc1)N1CCCN(C2CCN(CC3CC3)C2=O)CC1 (stereo unspecified) | 581 s

— the METLIN SMRT retention time set (Domingo-Almenara et al. 2019)
